Assay results taken from patent US20240327382A1 (ALMAC DISCOVERY LIMITED, priority 2021, published 2024).

Biological target: T1, Full-length USP19 (Homo sapiens, UniProt O94966)
T1 construct: Full-length USP19 was purchased from Boston Biochem (E-576); purchased Boston Biochem E-576
T1 sequence (O94966 1-1318): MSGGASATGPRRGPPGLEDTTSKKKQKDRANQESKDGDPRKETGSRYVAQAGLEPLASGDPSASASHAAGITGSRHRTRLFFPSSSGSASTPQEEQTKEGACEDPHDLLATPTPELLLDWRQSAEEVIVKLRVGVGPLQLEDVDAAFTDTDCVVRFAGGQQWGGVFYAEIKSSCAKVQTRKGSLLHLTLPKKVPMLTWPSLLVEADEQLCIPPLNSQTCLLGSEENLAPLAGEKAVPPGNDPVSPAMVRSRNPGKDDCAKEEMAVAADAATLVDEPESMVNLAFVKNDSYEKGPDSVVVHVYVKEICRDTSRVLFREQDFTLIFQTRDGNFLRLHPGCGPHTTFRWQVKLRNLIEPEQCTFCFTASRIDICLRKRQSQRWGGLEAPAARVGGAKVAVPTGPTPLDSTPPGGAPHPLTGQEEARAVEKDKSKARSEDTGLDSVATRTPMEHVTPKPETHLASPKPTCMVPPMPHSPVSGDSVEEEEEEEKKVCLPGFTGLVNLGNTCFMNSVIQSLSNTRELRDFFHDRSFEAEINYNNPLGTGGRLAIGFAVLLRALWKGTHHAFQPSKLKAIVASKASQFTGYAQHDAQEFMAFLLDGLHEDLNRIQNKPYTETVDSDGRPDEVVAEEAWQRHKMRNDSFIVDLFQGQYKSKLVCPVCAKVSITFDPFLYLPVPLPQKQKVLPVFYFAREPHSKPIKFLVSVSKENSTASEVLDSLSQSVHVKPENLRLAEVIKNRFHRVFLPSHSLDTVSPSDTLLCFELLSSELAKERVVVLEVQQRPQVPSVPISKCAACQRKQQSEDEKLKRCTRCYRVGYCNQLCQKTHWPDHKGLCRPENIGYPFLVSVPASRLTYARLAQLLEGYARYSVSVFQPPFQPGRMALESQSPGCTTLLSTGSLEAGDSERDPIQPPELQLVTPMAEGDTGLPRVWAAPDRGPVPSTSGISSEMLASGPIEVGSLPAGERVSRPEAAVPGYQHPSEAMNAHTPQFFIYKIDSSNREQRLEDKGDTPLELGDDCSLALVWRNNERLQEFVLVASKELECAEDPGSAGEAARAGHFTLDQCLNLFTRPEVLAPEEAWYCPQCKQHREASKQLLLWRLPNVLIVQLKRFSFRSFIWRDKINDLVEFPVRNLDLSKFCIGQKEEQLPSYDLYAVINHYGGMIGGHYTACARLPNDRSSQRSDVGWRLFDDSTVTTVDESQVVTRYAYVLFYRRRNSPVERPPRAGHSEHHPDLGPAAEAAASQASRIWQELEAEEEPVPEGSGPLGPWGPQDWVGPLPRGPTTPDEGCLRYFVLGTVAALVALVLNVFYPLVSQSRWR
Experiment: USP19 fluorescence polarisation (FP) assay, Ubiquitin-Lys-TAMRA substrate
Format: biochemical
Settings: average of at least two duplicate experiments
Experimental: USP19 activity was determined in a fluorescence polarisation (FP) homogeneous assay using the isopeptide Ubiquitin-Lys-TAMRA substrate (either AUB-101, Almac Sciences Scotland Limited, or U-558, Boston Biochem, both of which gave identical results). Full-length USP19 was purchased from Boston Biochem (E-576). Unless otherwise stated, all other reagents were purchased from Sigma. Enzymatic reactions were conducted in black flat bottom polystyrene 384-well plates (Nunc) and 30 μL total volume. USP19 (2.5 nM, 10 μL) was incubated in assay buffer (50 mM HEPES (pH 7.4), 150 mM NaCl, 5 mM DTT, 0.05% BSA (w/v), 0.05% CHAPS) in the presence or absence of inhibitor (10 μL). Inhibitors were stored as 10 mM DMSO stocks in an inert environment (low humidity, dark, low oxygen, rt) using the StoragePod® system (Roylan Developments) and serial dilutions were prepared in buffer just prior to the assay (from 200 μM to 2 μM, 8-18 data point curve). Following incubation at RT for 30 min, the enzymatic reactions were initiated by dispensing the Ub substrate (500 nM, 10 μL). FP was measured every 15 min over a period of 90 min (within the linear range of the assay) using a Synergy 4 plate reader (BioTek) exciting at 530 nm and measuring the amount of parallel and perpendicular light at 575 nm. The FP signal was subsequently normalised to the no compound control. Data were plotted and fitted, and the concentrations resulting in 50% inhibition (IC50) were calculated using the non-linear regression curve fitting model using GraphPad (Prism). IC50 values for the inhibitors of the invention are compiled in Tables 1 and 3 and represent the average of at least two duplicate experiments.

Row | Compound | IC50
1 | N[C@@H]1CCN(C(=O)N2CCC(Cn3ccc(C(F)(F)F)cc3=O)C3(CCCC3)C2)[C@H](c2ccccc2)C1 (stereo partly drawn) [Example 43, 1-((7-((2S,4R)-4-Amino-2-phenylpiperidine-1-carbonyl)-7-azaspiro[4.5]decan-10-yl)methyl)-4-(trifluoromethyl) pyridin-2(1H)-one] | 10 to 100 nM
2 | N[C@@H]1CCN(C(=O)N2CC[C@@H](Cn3ccc(Cl)cc3=O)C3(CCCC3)C2)[C@H](c2ccccc2)C1 [Example 67, 1-(((R)-7-((2S,4R)-4-Amino-2-phenylpiperidine-1-carbonyl)-7-azaspiro[4.5]decan-10-yl)methyl)-4-chloropyridin-2(1H)-one] | < 10 nM
3 | N[C@@H]1CCN(C(=O)N2CC[C@@H](Cn3cnc(-c4ccccc4)cc3=O)C3(CCCC3)C2)[C@H](c2ccccc2)C1 [Example 25] | < 10 nM
4 | CN[C@@H]1CCN(C(=O)N2CC[C@@H](Cn3ccc(-c4ccccc4OC)cc3=O)C3(CCCC3)C2)[C@H](c2ccc(F)cc2)C1 [Example 120, 1-(((R)-7-((2S,4R)-2-(4-Fluorophenyl)-4-(methylamino)piperidine-1-carbonyl)-7-azaspiro[4.5]decan-10-yl)methyl)-4-(2-methoxyphenyl)pyridin-2(1H)-one] | < 10 nM
5 | Cc1cc(C)nc(CN[C@@H]2CCN(C(=O)N3CC[C@@H](Cn4cnc(-c5ccccc5)cc4=O)C4(CCCC4)C3)[C@H](c3ccccc3)C2)n1 [Example 194, 3-(((R)-7-((2S,4R)-4-(((4,6-Dimethylpyrimidin-2-yl)methyl)amino)-2-phenylpiperidine-1-carbonyl)-7-azaspiro[4.5]decan-10-yl)methyl)-6-phenylpyrimidin-4(3H)-one] | < 10 nM
6 | CC1(c2cc(=O)n(CC3CCN(C(=O)N4CC[C@@H](N)C[C@H]4c4ccccc4)CC34CCCC4)cn2)CC1 (stereo partly drawn) [Example 36, 3-((7-((2S,4R)-4-Amino-2-phenylpiperidine-1-carbonyl)-7-azaspiro[4.5]decan-10-yl)methyl)-6-(1-methylcyclopropyl) pyrimidin-4(3H)-one] | < 10 nM
7 | C[C@H](CC(F)(F)F)C(=O)N1CCC(N)(Cn2cnc(-c3ccccc3)cc2=O)C2(CCCC2)C1 (stereo partly drawn) [Example 49, 3-((10-Amino-7-((R)-4,4,4-trifluoro-2-methylbutanoyl)-7-azaspiro[4.5]decan-10-yl)methyl)-6-phenylpyrimidin-4(3H)-one] | 100 to 1000 nM
8 | O=C(O)CN[C@@H]1CCN(C(=O)N2CC[C@@H](Cn3cnc(-c4ccccc4)cc3=O)C3(CCCC3)C2)[C@H](c2cc(F)ccc2F)C1 [Example 158] | < 10 nM
9 | COc1ccccc1-c1cc(=O)n(C[C@@H]2CCN(C(=O)N3CC[C@@H](N)C[C@H]3c3ccccc3)CC23CCCC3)cn1 [Example 92, 3-(((R)-7-((2S,4R)-4-Amino-2-phenylpiperidine-1-carbonyl)-7-azaspiro[4.5]decan-10-yl)methyl)-6-(2-methoxyphenyl)pyrimidin-4(3H)-one] | < 10 nM
10 | O=C(N1CC[C@@H](Cn2cnc(-c3ccccc3)cc2=O)C2(CCCC2)C1)N1CC[C@@H](Nc2ccccc2)C[C@H]1c1ccccc1 [Example 150, 6-Phenyl-3-(((R)-7-((2S,4R)-2-phenyl-4-(phenylamino)piperidine-1-carbonyl)-7-azaspiro[4.5]decan-10-yl)methyl)pyrimidin-4(3H)-one] | 1000 to 20000 nM
11 | CC(=O)N[C@@H]1CCN(C(=O)N2CC[C@@H](Cn3ccc(-c4ccccc4)cc3=O)C3(CCCC3)C2)[C@H](c2ccccc2)C1 [Example 93, N-((2S,4R)-1-((R)-10-((2-Oxo-4-phenylpyridin-1(2H)-yl)methyl)-7-azaspiro[4.5]decane-7-carbonyl)-2-phenylpiperidin-4-yl)acetamide] | 10 to 100 nM
12 | CN[C@@H]1CCN(C(=O)N2CC[C@@H](Cn3cnc(-c4ccccc4F)cc3=O)C3(CCCC3)C2)[C@H](c2ccccc2)C1 [Example 109, 6-(2-Fluorophenyl)-3-(((R)-7-((2S,4R)-4-(methylamino)-2-phenylpiperidine-1-carbonyl)-7-azaspiro[4.5]decan-10-yl)methyl)pyrimidin-4(3H)-one] | < 10 nM
